Laboratory results taken from PubChem BioAssay (NCI).
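The compound was tested at five concentrations on cells cultured in 96-well plates, with a 48-hour exposure period. GI50: concentration for 50% inhibition of growth. TGI marks complete inhibition of growth.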

Key:
Assay in all cases: NCI anticancer screen, dose series, 48 h
T-47D breast = system: T-47D breast
UACC-62 melanoma = system: UACC-62 melanoma
MDA-MB-468 breast = system: MDA-MB-468 breast
SF-295 CNS = system: SF-295 CNS
MDA-MB-435 = system: MDA-MB-435
HCC-2998 colon = system: HCC-2998 colon
SW-620 colon = system: SW-620 colon
SF-539 CNS = system: SF-539 CNS
M14 melanoma = system: M14 melanoma
SNB-19 CNS = system: SNB-19 CNS
SK-OV-3 ovarian = system: SK-OV-3 ovarian
OVCAR-8 ovarian = system: OVCAR-8 ovarian
NCI-H226 lung = system: NCI-H226 lung
MCF7 breast = system: MCF7 breast
SF-268 CNS = system: SF-268 CNS
SR leukemia = system: SR leukemia
SK-MEL-5 melanoma = system: SK-MEL-5 melanoma
RXF 393 renal = system: RXF 393 renal
K-562 leukemia = system: K-562 leukemia
UO-31 renal = system: UO-31 renal
A549 NSCLC = system: A549 NSCLC
TK-10 renal = system: TK-10 renal
SK-MEL-28 melanoma = system: SK-MEL-28 melanoma
OVCAR-5 ovarian = system: OVCAR-5 ovarian
IGROV1 ovarian = system: IGROV1 ovarian
SK-MEL-2 melanoma = system: SK-MEL-2 melanoma
HOP-62 NSCLC = system: HOP-62 NSCLC
KM12 colon = system: KM12 colon
NCI-H460 lung = system: NCI-H460 lung
A498 renal = system: A498 renal
SN12C renal = system: SN12C renal
COLO 205 colon = system: COLO 205 colon
NCI-H522 lung = system: NCI-H522 lung
RPMI-8226 leukemia = system: RPMI-8226 leukemia
UACC-257 melanoma = system: UACC-257 melanoma
MDA-MB-231 breast = system: MDA-MB-231 breast
MALME-3M melanoma = system: MALME-3M melanoma
DU-145 prostate = system: DU-145 prostate
HCT-15 colon = system: HCT-15 colon
PC-3 prostate = system: PC-3 prostate
HT29 colon = system: HT29 colon
BT-549 breast = system: BT-549 breast
OVCAR-3 ovarian = system: OVCAR-3 ovarian
NCI-H23 lung = system: NCI-H23 lung
HCT-116 colon = system: HCT-116 colon
MOLT-4 leukemia = system: MOLT-4 leukemia
U251 CNS = system: U251 CNS
HOP-92 NSCLC = system: HOP-92 NSCLC
HS 578T breast = system: HS 578T breast
LOX IMVI melanoma = system: LOX IMVI melanoma
CAKI-1 renal = system: CAKI-1 renal
HL-60(TB) leukemia = system: HL-60(TB) leukemia
EKVX NSCLC = system: EKVX NSCLC
CCRF-CEM leukemia = system: CCRF-CEM leukemia
NCI/ADR-RES ovarian = system: NCI/ADR-RES ovarian

## N/C(=N\c1nc2ccc([N+](=O)[O-])cc2s1)NC(=O)Nc1ccccc1Cl
T-47D breast
  GI50: 2.71 µM
  TGI: > 100 µM
UACC-62 melanoma
  GI50: 14.9 µM
  TGI: 66.6 µM
MDA-MB-468 breast
  GI50: 3.16 µM
  TGI: 13.1 µM
SF-295 CNS
  GI50: 17.6 µM
  TGI: 90.9 µM
MDA-MB-435
  GI50: 2.26 µM
  TGI: 7.77 µM
HCC-2998 colon
  GI50: 61.4 µM
  TGI: > 100 µM
SW-620 colon
  GI50: 5.11 µM
  TGI: > 100 µM
SF-539 CNS
  GI50: 4.55 µM
  TGI: 28.2 µM
M14 melanoma
  GI50: 13.1 µM
  TGI: 38.5 µM
SNB-19 CNS
  GI50: 10.2 µM
  TGI: > 100 µM
SK-OV-3 ovarian
  GI50: 6.63 µM
  TGI: 28.2 µM
OVCAR-8 ovarian
  GI50: 3.9 µM
  TGI: > 100 µM
NCI-H226 lung
  GI50: 5 µM
  TGI: > 100 µM
MCF7 breast
  GI50: 7.69 µM
  TGI: > 100 µM
SF-268 CNS
  GI50: 15.1 µM
  TGI: > 100 µM
SR leukemia
  GI50: 2.17 µM
  TGI: > 100 µM
SK-MEL-5 melanoma
  GI50: 11.4 µM
  TGI: 38.6 µM
RXF 393 renal
  GI50: 3.79 µM
  TGI: > 100 µM
K-562 leukemia
  GI50: 3.56 µM
  TGI: > 100 µM
UO-31 renal
  GI50: 3.19 µM
  TGI: > 100 µM
A549 NSCLC
  GI50: 3.09 µM
  TGI: > 100 µM
TK-10 renal
  GI50: 3.6 µM
  TGI: > 100 µM
SK-MEL-28 melanoma
  GI50: 26.2 µM
  TGI: > 100 µM
OVCAR-5 ovarian
  GI50: 4.12 µM
  TGI: > 100 µM
IGROV1 ovarian
  GI50: 9.77 µM
  TGI: > 100 µM
SK-MEL-2 melanoma
  GI50: 23 µM
  TGI: 50.2 µM
HOP-62 NSCLC
  GI50: 10.8 µM
  TGI: 94.4 µM
KM12 colon
  GI50: 6.95 µM
  TGI: > 100 µM
NCI-H460 lung
  GI50: 3.1 µM
  TGI: 8.71 µM
A498 renal
  GI50: 4.53 µM
  TGI: 38 µM
SN12C renal
  GI50: 4.2 µM
  TGI: > 100 µM
COLO 205 colon
  GI50: 6.91 µM
  TGI: 76.2 µM
NCI-H522 lung
  GI50: 3.46 µM
  TGI: 41.5 µM
RPMI-8226 leukemia
  GI50: 72.2 µM
  TGI: > 100 µM
UACC-257 melanoma
  GI50: 45.5 µM
  TGI: > 100 µM
MDA-MB-231 breast
  GI50: 2.45 µM
  TGI: 6.88 µM
MALME-3M melanoma
  GI50: 4.56 µM
  TGI: > 100 µM
DU-145 prostate
  GI50: 5.63 µM
  TGI: > 100 µM
HCT-15 colon
  GI50: 6.92 µM
  TGI: > 100 µM
PC-3 prostate
  GI50: 28.9 µM
  TGI: > 100 µM
HT29 colon
  GI50: 13.9 µM
  TGI: > 100 µM
BT-549 breast
  GI50: 4.07 µM
  TGI: > 100 µM
OVCAR-3 ovarian
  GI50: 2.41 µM
  TGI: 6.16 µM
NCI-H23 lung
  GI50: 4.55 µM
  TGI: > 100 µM
HCT-116 colon
  GI50: 1.69 µM
  TGI: 3.46 µM
MOLT-4 leukemia
  GI50: 40 µM
  TGI: > 100 µM
U251 CNS
  GI50: 2.3 µM
  TGI: 6.18 µM
HOP-92 NSCLC
  GI50: 2.97 µM
  TGI: 17.5 µM
HS 578T breast
  GI50: 12.1 µM
  TGI: > 100 µM
LOX IMVI melanoma
  GI50: 9.3 µM
  TGI: > 100 µM
CAKI-1 renal
  GI50: 3.58 µM
  TGI: > 100 µM
HL-60(TB) leukemia
  GI50: 22.4 µM
  TGI: > 100 µM
EKVX NSCLC
  GI50: 12.4 µM
  TGI: > 100 µM
CCRF-CEM leukemia
  GI50: 46.9 µM
  TGI: > 100 µM
NCI/ADR-RES ovarian
  GI50: 3.97 µM
  TGI: > 100 µM
